According to patent US20190047966A1, “NOVEL COMPOUND AND PHARMACOLOGICALLY ACCEPTABLE SALT THEREOF” (MEIJI SEIKA PHARMA CO., LTD., priority 2016, published 2019):
Structures can show the parent of a compound that is named as a salt.

Experiments:
[1] = molecular target: T1, human histamine H4 receptor (Homo sapiens, UniProt Q9H3N8); experiment: Evaluation of Human H4 Receptor Affinity ([3H]histamine binding); details: inhibition constant Ki, CHO-K1 membrane preparation, read-out: Evaluation of H4 Receptor Affinity
T1 construct: purchased PerkinElmer Inc; host or cells: CHO-K1
T1 sequence (Q9H3N8 whole entry): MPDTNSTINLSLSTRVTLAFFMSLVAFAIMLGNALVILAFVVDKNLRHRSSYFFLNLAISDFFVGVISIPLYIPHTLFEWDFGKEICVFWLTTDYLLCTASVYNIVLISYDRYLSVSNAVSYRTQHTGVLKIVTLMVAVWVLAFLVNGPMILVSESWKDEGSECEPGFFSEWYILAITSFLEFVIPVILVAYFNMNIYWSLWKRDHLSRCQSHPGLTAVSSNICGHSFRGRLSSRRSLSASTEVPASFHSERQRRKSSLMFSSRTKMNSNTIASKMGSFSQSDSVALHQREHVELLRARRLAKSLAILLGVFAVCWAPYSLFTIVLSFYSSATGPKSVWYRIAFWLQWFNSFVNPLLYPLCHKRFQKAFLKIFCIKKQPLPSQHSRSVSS
Summary of the method: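 Radioligand displacement: compound competes with 8.2 nM [3H]histamine at recombinant human H4 receptor in CHO-K1 membranes (Tris-HCl 50 mM pH 7.4, EDTA 1.25 mM; 25 °C, 90 min), with filter-bound radioactivity counted. IC50 was converted to Ki via Cheng-Prusoff (Kd 5.7 nM); 1.0 μM histamine set nonspecific binding.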

[2] = molecular target: human histamine H1 receptor (Homo sapiens, UniProt P35367); experiment: Evaluation of Human H1 Receptor Affinity ([3H]pyrilamine binding); set-up: purchased PerkinElmer Inc; host or cells: CHO-K1; details: inhibition constant Ki, CHO-K1 membrane preparation
human histamine H1 receptor, sequence (P35367 whole entry): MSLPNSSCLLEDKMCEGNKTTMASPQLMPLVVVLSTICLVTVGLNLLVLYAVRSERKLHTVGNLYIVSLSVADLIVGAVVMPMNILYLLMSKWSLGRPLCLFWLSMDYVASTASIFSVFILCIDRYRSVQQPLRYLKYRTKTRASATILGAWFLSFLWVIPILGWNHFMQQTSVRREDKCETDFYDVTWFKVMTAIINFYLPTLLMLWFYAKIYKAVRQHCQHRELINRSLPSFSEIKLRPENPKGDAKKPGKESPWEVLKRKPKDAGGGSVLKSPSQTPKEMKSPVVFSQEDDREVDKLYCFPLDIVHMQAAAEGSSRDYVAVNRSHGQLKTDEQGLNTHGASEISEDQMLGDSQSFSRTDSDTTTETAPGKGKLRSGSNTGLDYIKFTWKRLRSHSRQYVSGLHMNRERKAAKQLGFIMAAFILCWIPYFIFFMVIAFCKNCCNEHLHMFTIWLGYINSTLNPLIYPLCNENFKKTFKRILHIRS
Summary of the method: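 Ki values are Cheng-Prusoff conversions of IC50 (Kd 1.1 nM) from radioligand displacement of 1.2 nM [3H]pyrilamine, with 1.0 μM pyrilamine defining nonspecific binding.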

Structure (SMILES) | Ki [1] [µM] | Ki [2] [µM]
Nc1nc2c(c(N3CCN(CCO[C@@H]4C[C@@H]5[C@H](C4)[C@H]5C(=O)O)CC3)n1)CCc1cc(OCc3ccc(OC(F)(F)F)cc3)ccc1-2 [Example 147, (1R,3s,55,6r)-3-(2-(4-(2-amino-8-((4-(trifluoromethoxy)benzyl)oxy)-5,6-dihydrobenzo[h]quinazolin-4-yl)piperazin-1-yl)ethoxy)bicyclo[3.1.0]hexane-6-carboxylic acid] | < 0.1 | < 0.1
Nc1nc2c(c(N3CCN(CCO[C@@H]4C[C@@H]5[C@H](C4)[C@@H]5C(=O)O)CC3)n1)CCc1cc(OCc3ccc(OC(F)(F)F)cc3)ccc1-2 [Example 148, (1R,3s,5S,6s)-3-(2-(4-(2-amino-8-((4-(trifluoromethoxy)benzyl)oxy)-5,6-dihydrobenzo[h]quinazolin-4-yl)piperazin-1-yl)ethoxy)bicyclo[3.1.0]hexane-6-carboxylic acid] | 0.1 to 0.5 | < 0.1
COC(=O)CC1CN(C(=O)OCCN2CCN(c3nc(N)nc4c3CCc3cc(OCc5ccc(Cl)cc5)ccc3-4)CC2)C1 [Example 149, 2-(4-(2-amino-8-((4-chlorobenzyl)oxy)-5,6-dihydrobenzo[h]quinazolin-4-yl)piperazin-1-yl)ethyl 3-(2-methoxy-2-oxoethyl)azetidine-1-carboxylate] | 0.1 to 0.5 | < 0.1
COC(=O)C1CN(C(=O)OCCN2CCN(c3nc(N)nc4c3CCc3cc(OCc5ccc(Cl)cc5)ccc3-4)CC2)C1 [Example 150, 1-(2-(4-(2-amino-8-((4-chlorobenzyl)oxy)-5,6-dihydrobenzo[h]quinazolin-4-yl)piperazin-1-yl)ethyl) 3-methyl azetidine-1,3-dicarboxylate] | 0.1 to 0.5 | < 0.1
Nc1nc2c(c(N3CCN(CCOCC45C6C7C4C4C5C6C74C(=O)O)CC3)n1)CCc1cc(OCc3ccc(Cl)cc3)ccc1-2 (stereo not shown) [Example 151, 4-((2-(4-(2-amino-8-((4-chlorobenzyl)oxy)-5,6-dihydrobenzo[h]quinazolin-4-yl)piperazin-1-yl)ethoxy)methyl)pentacyclo[4.2.0.0^2.5.0^3.8.0^4.7]octane-1-carboxylic acid dihydrochloride] | < 0.1 | < 0.1
Nc1nc2c(c(N3CCN(CCOC4CC4C(=O)O)CC3)n1)CCc1cc(OCc3ccc(Cl)cc3)ccc1-2 (stereo not shown) [Example 154, 2-(2-(4-(2-amino-8-((4-chlorobenzyl)oxy)-5,6-dihydrobenzo[h]quinazolin-4-yl)piperazin-1-yl)ethoxy)cyclopropane-1-carboxylic acid] | 0.1 to 0.5 | < 0.1
Cn1cc(COCCN2CCN(c3nc(N)nc4c3CCc3cc(OCc5ccc(Cl)cc5)ccc3-4)CC2)cc1C(=O)O [Example 156, 4-((2-(4-(2-amino-8-((4-chlorobenzyl)oxy)-5,6-dihydrobenzo[h]quinazolin-4-yl)piperazin-1-yl)ethoxy)methyl)-1-methyl-1H-pyrrole-2-carboxylic acid hydrochloride] | < 0.1 | < 0.1
Nc1nc2c(c(N3CCN(CCOC45CCC(C(=O)O)(CC4)CC5)CC3)n1)CCc1cc(OCc3ccc(Cl)cc3)ccc1-2 [Example 157, 4-(2-(4-(2-amino-8-((4-chlorobenzyl)oxy)-5,6-dihydrobenzo[h]quinazolin-4-yl)piperazin-1-yl)ethoxy)bicyclo[2.2.2]octane-1-carboxylic acid hydrochloride] | < 0.1 | < 0.1
CC12CCC(C(=O)O)(CC1OCCN1CCN(c3nc(N)nc4c3CCc3cc(OCc5ccc(Cl)cc5)ccc3-4)CC1)C2(C)C (stereo not shown) [Example 158, 3-(2-(4-(2-amino-8-((4-chlorobenzyl)oxy)-5,6-dihydrobenzo[h]quinazolin-4-yl)piperazin-1-yl)ethoxy)-4,7,7-trimethylbicyclo[2.2.1]heptane-1-carboxylic acid hydrochloride] | 0.1 to 0.5 | < 0.1
CC1(C(=O)O)CCC(OCCN2CCN(c3nc(N)nc4c3CCc3cc(OCc5ccc(Cl)cc5)ccc3-4)CC2)CC1 (stereo not shown) [Example 161, 4-(2-(4-(2-amino-8-((4-chlorobenzyl)oxy)-5,6-dihydrobenzo[h]quinazolin-4-yl)piperazin-1-yl)ethoxy)-1-methylcyclohexane-1-carboxylic acid] | < 0.1 | < 0.1
CC(C)(C(=O)O)c1ccc(OCCN2CCN(c3nc(N)nc4c3CCc3cc(OCc5ccc(Cl)cc5)ccc3-4)CC2)cc1 [Example 162, 2-(4-(2-(4-(2-amino-8-((4-chlorobenzyl)oxy)-5,6-dihydrobenzo[h]quinazolin-4-yl)piperazin-1-yl)ethoxy)phenyl)-2-methylpropanoic acid] | 0.1 to 0.5 | 0.1 to 0.5
Nc1nc2c(c(N3CCN(CCOCC4(CCC(=O)O)COC4)CC3)n1)CCc1cc(OCc3ccc(Cl)cc3)ccc1-2 [Example 163, 3-(3-((2-(4-(2-amino-8-((4-chlorobenzyl)oxy)-5,6-dihydrobenzo[h]quinazolin-4-yl)piperazin-1-yl)ethoxy)methyl)oxetan-3-yl)propanoic acid] | < 0.1 | < 0.1
CC1(COCCN2CCN(c3nc(N)nc4c3CCc3cc(OCc5ccc(Cl)cc5)ccc3-4)CC2)CCC(C(=O)O)CC1 (stereo not drawn) [Example 164, cis- or trans-4-((2-(4-(2-amino-8-((4-chlorobenzyl)oxy)-5,6-dihydrobenzo[h]quinazolin-4-yl)piperazin-1-yl)ethoxy)methyl)-4-methylcyclohexane-1-carboxylic acid] | < 0.1 | < 0.1
CC1(C(=O)O)CCC(COCCN2CCN(c3nc(N)nc4c3CCc3cc(OCc5ccc(Cl)cc5)ccc3-4)CC2)CC1 (stereo not drawn) [Example 165, trans- or cis-4-((2-(4-(2-amino-8-((4-chlorobenzyl)oxy)-5,6-dihydrobenzo[h]quinazolin-4-yl)piperazin-1-yl)ethoxy)methyl)-1-methylcyclohexane-1-carboxylic acid] | < 0.1 | < 0.1
Nc1nc2c(c(N3CCN(CCOCCOCC4(C(=O)O)COC4)CC3)n1)CCc1cc(OCc3ccc(Cl)cc3)ccc1-2 [Example 168, 3-((2-(2-(4-(2-amino-8-((4-chlorobenzyl)oxy)-5,6-dihydrobenzo[h]quinazolin-4-yl)piperazin-1-yl)ethoxy)ethoxy)methyl)oxetane-3-carboxylic acid] | 0.1 to 0.5 | < 0.1
Nc1nc2c(c(N3CCN(CCOCC4CC(C(=O)O)C4)CC3)n1)CCc1cc(OCc3ccc(Cl)cc3)ccc1-2 (stereo not drawn) [Example 169, cis- or trans-3-((2-(4-(2-amino-8-((4-chlorobenzyl)oxy)-5,6-dihydrobenzo[h]quinazolin-4-yl)piperazin-1-yl)ethoxy)methyl)cyclobutane-1-carboxylic acid] | 0.1 to 0.5 | < 0.1
Nc1nc2c(c(N3CCN(CCOCC4CC(C(=O)O)C4)CC3)n1)CCc1cc(OCc3ccc(Cl)cc3)ccc1-2 (stereo not drawn) [Example 170, trans- or cis-3-((2-(4-(2-amino-8-((4-chlorobenzyl)oxy)-5,6-dihydrobenzo[h]quinazolin-4-yl)piperazin-1-yl)ethoxy)methyl)cyclobutane-1-carboxylic acid] | < 0.1 | < 0.1
CC(C)(C(=O)O)[C@H]1C[C@@H](OCCN2CCN(c3nc(N)nc4c3CCc3cc(OCc5ccc(Cl)cc5)ccc3-4)CC2)C1 [Example 172, cis-2-(3-(2-(4-(2-amino-8-((4-chlorobenzyl)oxy)-5,6-dihydrobenzo[h]quinazolin-4-yl)piperazin-1-yl)ethoxy)cyclobutyl)-2-methylpropanoic acid] | < 0.1 | < 0.1
CC(C)(C(=O)O)[C@H]1C[C@H](OCCN2CCN(c3nc(N)nc4c3CCc3cc(OCc5ccc(Cl)cc5)ccc3-4)CC2)C1 [Example 173, trans-2-(3-(2-(4-(2-amino-8-((4-chlorobenzyl)oxy)-5,6-dihydrobenzo[h]quinazolin-4-yl)piperazin-1-yl)ethoxy)cyclobutyl)-2-methylpropanoic acid] | < 0.1 | < 0.1
CC(C)(C(=O)O)[C@H]1C[C@H](OCCN2CCN(c3nc(N)nc4c3CCc3cc(OCc5ccc(OC(F)(F)F)cc5)ccc3-4)CC2)C1 [Example 174, trans-2-(3-(2-(4-(2-amino-8-((4-(trifluoromethoxy)benzyl)oxy)-5,6-dihydrobenzo[h]quinazolin-4-yl)piperazin-1-yl)ethoxy)cyclobutyl)-2-methylpropanoic acid] | < 0.1 | < 0.1
N#CC1(C(=O)O)CCC(COCCN2CCN(c3nc(N)nc4c3CCc3cc(OCc5ccc(OC(F)(F)F)cc5)ccc3-4)CC2)CC1 (stereo not shown) [Example 175, 4-((2-(4-(2-amino-8-((4-(trifluoromethoxy)benzyl)oxy)-5,6-dihydrobenzo[h]quinazolin-4-yl)piperazin-1-yl)ethoxy)methyl)-1-cyanocyclohexane-1-carboxylic acid] | < 0.1 | < 0.1
Nc1nc2c(c(N3CCN(CCOC4CCC(C(=O)O)OC4)CC3)n1)CCc1cc(OCc3ccc(OC(F)(F)F)cc3)ccc1-2 (stereo not shown) [Example 179, 5-(2-(4-(2-amino-8-((4-(trifluoromethoxy)benzyl)oxy)-5,6-dihydrobenzo[h]quinazolin-4-yl)piperazin-1-yl)ethoxy)tetrahydro-2H-pyran-2-carboxylic acid] | < 0.1 | < 0.1
Nc1nc2c(c(N3CCN(CCO[C@H]4C[C@@H]5[C@H](C4)[C@@]5(F)C(=O)O)CC3)n1)CCc1cc(OCc3ccc(OC(F)(F)F)cc3)ccc1-2 [Example 180, (1R,3r,5S,6s)-3-(2-(4-(2-amino-8-((4-(trifluoromethoxy)benzyl)oxy)-5,6-dihydrobenzo[h]quinazolin-4-yl)piperazin-1-yl)ethoxy)-6-fluorobicyclo[3.1.0]hexane-6-carboxylic acid] | < 0.1 | < 0.1
